Reference: US8053418B2, “Anti-penicillin resistant pneumococci agent and novel 16-membered macrolide derivative” (Microbial Chemistry Research Foundation, priority 2005, dated 2011)
In brackets after ≈: the same amount, converted by molar mass.

Columns and labels:
Type in all cases: cell-based
[1] = system: Streptococcus pneumoniae IMC B-0919 (PRSP); experiment: Antimicrobial activity test (MIC), clinical isolate IMC B-0919
Description: (§1) Using Streptococcus pneumoniae that include clinical isolates of PRSP, the antimicrobial activity of each of the prepared anti-PRSP agents was measured in accordance with the “determination method of minimum inhibitory concentration of drug against bacteria” of Japanese Society of Chemotherapy (for re-revised version, see Chemotherapy 29; 76, 1981).
(§2) 11 test strains of Streptococcus pneumoniae including IMC B-0919 are all clinical isolates, of which 2 strains, IMC B-0921 and IMC B-1229, are classified into penicillin susceptible Streptococcus pneumoniae (PSSP) and the remaining 9 strains are classified into penicillin-resistant Streptococcus pneumoniae (PRSP) (according to NCCLS standards).

[2] = system: Streptococcus pneumoniae IMC B-0920 (PRSP); experiment: Antimicrobial activity test (MIC), clinical isolate IMC B-0920
Description: as §1, §2

[3] = system: Streptococcus pneumoniae IMC B-0922 (PRSP); experiment: Antimicrobial activity test (MIC), clinical isolate IMC B-0922
Description: as §1, §2

[4] = system: Streptococcus pneumoniae IMC B-1231 (PRSP); experiment: Antimicrobial activity test (MIC), clinical isolate IMC B-1231
Description: as §1, §2

[5] = system: Streptococcus pneumoniae IMC B-1232 (PRSP); experiment: Antimicrobial activity test (MIC), clinical isolate IMC B-1232
Description: as §1, §2

[6] = system: Streptococcus pneumoniae IMC B-1233 (PRSP); experiment: Antimicrobial activity test (MIC), clinical isolate IMC B-1233
Description: as §1, §2

[7] = system: Streptococcus pneumoniae IMC B-1234 (PRSP); experiment: Antimicrobial activity test (MIC), clinical isolate IMC B-1234
Description: as §1, §2

[8] = system: Streptococcus pneumoniae IMC B-1235 (PRSP); experiment: Antimicrobial activity test (MIC), clinical isolate IMC B-1235
Description: as §1, §2

[9] = system: Streptococcus pneumoniae IMC B-1236 (PRSP); experiment: Antimicrobial activity test (MIC), clinical isolate IMC B-1236
Description: as §1, §2

[10] = system: Streptococcus pneumoniae IMC B-0921 (PSSP); experiment: Antimicrobial activity test (MIC), clinical isolate IMC B-0921
Description: as §1, §2

[11] = system: Streptococcus pneumoniae IMC B-1229 (PSSP); experiment: Antimicrobial activity test (MIC), clinical isolate IMC B-1229
Description: as §1, §2

[12] = PRSP clinical isolate IMC B-0919
[13] = Streptococcus pneumoniae IMC B-0919, PRSP
[14] = PRSP clinical isolate IMC B-0920
[15] = Streptococcus pneumoniae IMC B-0920, PRSP
[16] = PRSP clinical isolate IMC B-0922
[17] = Streptococcus pneumoniae IMC B-0922, PRSP
[18] = PRSP clinical isolate IMC B-1231
[19] = Streptococcus pneumoniae IMC B-1231, PRSP
[20] = PRSP clinical isolate IMC B-1232
[21] = Streptococcus pneumoniae IMC B-1232, PRSP
[22] = PRSP clinical isolate IMC B-1233
[23] = Streptococcus pneumoniae IMC B-1233, PRSP
[24] = PRSP clinical isolate IMC B-1234
[25] = Streptococcus pneumoniae IMC B-1234, PRSP
[26] = PRSP clinical isolate IMC B-1235
[27] = Streptococcus pneumoniae IMC B-1235, PRSP
[28] = PRSP clinical isolate IMC B-1236
[29] = Streptococcus pneumoniae IMC B-1236, PRSP
[30] = PSSP clinical isolate IMC B-0921
[31] = Streptococcus pneumoniae IMC B-0921, PSSP
[32] = PSSP clinical isolate IMC B-1229
[33] = Streptococcus pneumoniae IMC B-1229, PSSP

What does the source list for `CCC1OC(=O)CCC(C)C(OC2OC(C)CC(N(C)C)C2O)C(CC=O)CC(C)C(=O)C=CC(C)=CC1COC(=O)NCc1ccc(OC)cc1` (stereo not shown) [MKT-1011]?
MIC [1, 12]: 0.1 µg/mL (≈ 0.137 µM); MIC [1, 13]: 0.1 µg/mL (≈ 0.137 µM); MIC [2, 14]: 0.1 µg/mL (≈ 0.137 µM); MIC [2, 15]: 0.1 µg/mL (≈ 0.137 µM); MIC [3, 16]: 0.2 µg/mL (≈ 0.274 µM); MIC [3, 17]: 0.2 µg/mL (≈ 0.274 µM); MIC [4, 18]: 50 µg/mL (≈ 68.6 µM); MIC [4, 19]: 50 µg/mL (≈ 68.6 µM); MIC [5, 20]: 0.1 µg/mL (≈ 0.137 µM); MIC [5, 21]: 0.1 µg/mL (≈ 0.137 µM); MIC [6, 22]: 0.1 µg/mL (≈ 0.137 µM); MIC [6, 23]: 0.1 µg/mL (≈ 0.137 µM); MIC [7, 24]: 0.1 µg/mL (≈ 0.137 µM); MIC [7, 25]: 0.1 µg/mL (≈ 0.137 µM); MIC [8, 26]: 6.25 µg/mL (≈ 8.57 µM); MIC [8, 27]: 6.25 µg/mL (≈ 8.57 µM); MIC [9, 28]: 1.56 µg/mL (≈ 2.14 µM); MIC [9, 29]: 1.56 µg/mL (≈ 2.14 µM); MIC [10, 30]: 0.1 µg/mL (≈ 0.137 µM); MIC [10, 31]: 0.1 µg/mL (≈ 0.137 µM); MIC [11, 32]: 0.2 µg/mL (≈ 0.274 µM); MIC [11, 33]: 0.2 µg/mL (≈ 0.274 µM)

For `CCC1OC(=O)CCC(C)C(OC2OC(C)CC(N(C)C)C2O)C(CC=O)CC(C)C(=O)C=CC(C)=CC1COC(=O)Cc1ccccc1` (stereo not shown) [MKT-2005], which MIC [1, 12] is on record?
The MIC was 0.2 µg/mL (≈ 0.292 µM).

What about the MIC [2, 14] of the same molecule?
Its MIC is 0.2 µg/mL (≈ 0.292 µM).

What about the MIC [3, 16] of the same molecule?
Its MIC is 0.1 µg/mL (≈ 0.146 µM).

And the MIC [4, 18]?
The MIC was 0.78 µg/mL (≈ 1.14 µM).

And the MIC [5, 20]?
The MIC was 0.05 µg/mL (≈ 0.0731 µM).

And the MIC [6, 22]?
Its MIC is under 0.025 µg/mL.

What about the MIC [7, 24] of the same molecule?
Its MIC is 0.1 µg/mL (≈ 0.146 µM).

And the MIC [8, 26]?
Its MIC is 1.56 µg/mL (≈ 2.28 µM).

And the MIC [9, 28]?
Its MIC is 3.13 µg/mL (≈ 4.58 µM).

What about the MIC [10, 30] of the same molecule?
Its MIC is 0.05 µg/mL (≈ 0.0731 µM).

And the MIC [11, 32]?
Its MIC is 0.1 µg/mL (≈ 0.146 µM).

For `CC=CC=CC(=O)OCC1C=C(C)C=CC(=O)C(C)CC(CC=O)C(OC2OC(C)CC(N(C)C)C2O)C(C)CCC(=O)OC1CC` (stereo not shown) [MKT-2110], which MIC [1, 13] is on record?
The MIC was 0.05 µg/mL (≈ 0.0758 µM).

And the MIC [2, 15]?
Its MIC is 0.20 µg/mL (≈ 0.303 µM).

What about the MIC [3, 17] of the same molecule?
The MIC was 0.10 µg/mL (≈ 0.152 µM).

What about the MIC [4, 19] of the same molecule?
The MIC was 25 µg/mL (≈ 37.9 µM).

And the MIC [5, 21]?
The MIC was 0.20 µg/mL (≈ 0.303 µM).

What about the MIC [6, 23] of the same molecule?
The MIC was 0.10 µg/mL (≈ 0.152 µM).

What about the MIC [7, 25] of the same molecule?
The MIC was 0.10 µg/mL (≈ 0.152 µM).

What about the MIC [8, 27] of the same molecule?
The MIC was 50 µg/mL (≈ 75.8 µM).

And the MIC [9, 29]?
The MIC was 12.5 µg/mL (≈ 18.9 µM).

And the MIC [10, 31]?
Its MIC is 0.10 µg/mL (≈ 0.152 µM).

What about the MIC [11, 33] of the same molecule?
The MIC was 0.20 µg/mL (≈ 0.303 µM).

`CCC1OC(=O)CCC(C)C(OC2OC(C)CC(N(C)C)C2O)C(CC=O)CC(C)C(=O)C=CC(C)=CC1CI` (stereo not shown) [MKT-3001] was tested. Which MIC [1, 12] did it give?
The MIC was 0.39 µg/mL (≈ 0.577 µM).

And the MIC [2, 14]?
The MIC was 0.2 µg/mL (≈ 0.296 µM).

And the MIC [3, 16]?
Its MIC is 0.2 µg/mL (≈ 0.296 µM).

What about the MIC [4, 18] of the same molecule?
The MIC was over 50 µg/mL.

What about the MIC [5, 20] of the same molecule?
Its MIC is 0.1 µg/mL (≈ 0.148 µM).

And the MIC [6, 22]?
Its MIC is 0.2 µg/mL (≈ 0.296 µM).

And the MIC [7, 24]?
The MIC was 0.2 µg/mL (≈ 0.296 µM).

What about the MIC [8, 26] of the same molecule?
The MIC was 50 µg/mL (≈ 74 µM).

And the MIC [9, 28]?
Its MIC is 25 µg/mL (≈ 37 µM).

And the MIC [10, 30]?
Its MIC is 0.2 µg/mL (≈ 0.296 µM).

What about the MIC [11, 32] of the same molecule?
The MIC was 0.39 µg/mL (≈ 0.577 µM).

`CCC1OC(=O)CCC(C)C(OC2OC(C)CC(N(C)C)C2O)C(CC=O)CC(C)C(=O)C=CC(C)=CC1CN=[N+]=[N-]` (stereo not shown) [MKT-3004] was tested. Which MIC [1, 12] did it give?
Its MIC is 0.2 µg/mL (≈ 0.339 µM).

What about the MIC [2, 14] of the same molecule?
The MIC was 0.1 µg/mL (≈ 0.169 µM).

And the MIC [3, 16]?
Its MIC is 0.1 µg/mL (≈ 0.169 µM).

What about the MIC [4, 18] of the same molecule?
The MIC was 25 µg/mL (≈ 42.3 µM).

What about the MIC [5, 20] of the same molecule?
Its MIC is 0.2 µg/mL (≈ 0.339 µM).

What about the MIC [6, 22] of the same molecule?
Its MIC is 0.2 µg/mL (≈ 0.339 µM).

What about the MIC [7, 24] of the same molecule?
The MIC was 0.2 µg/mL (≈ 0.339 µM).

What about the MIC [8, 26] of the same molecule?
The MIC was 50 µg/mL (≈ 84.6 µM).

And the MIC [9, 28]?
The MIC was 50 µg/mL (≈ 84.6 µM).

And the MIC [10, 30]?
Its MIC is 0.1 µg/mL (≈ 0.169 µM).

And the MIC [11, 32]?
Its MIC is 0.1 µg/mL (≈ 0.169 µM).

With `CCC1OC(=O)CCC(C)C(OC2OC(C)CC(N(C)C)C2O)C(CC=O)CC(C)C(=O)C=CC(C)=CC1CN` (stereo not shown) [MKT-3005] as the molecule, how does the MIC [1, 12] read?
Its MIC is 0.78 µg/mL (≈ 1.38 µM).

What about the MIC [2, 14] of the same molecule?
Its MIC is 1.56 µg/mL (≈ 2.76 µM).

And the MIC [3, 16]?
The MIC was 0.39 µg/mL (≈ 0.691 µM).

And the MIC [4, 18]?
Its MIC is 50 µg/mL (≈ 88.5 µM).

And the MIC [5, 20]?
The MIC was 0.2 µg/mL (≈ 0.354 µM).

And the MIC [6, 22]?
The MIC was 0.05 µg/mL (≈ 0.0885 µM).

What about the MIC [7, 24] of the same molecule?
The MIC was 0.2 µg/mL (≈ 0.354 µM).

What about the MIC [8, 26] of the same molecule?
The MIC was 100 µg/mL (≈ 177 µM).

And the MIC [9, 28]?
Its MIC is 100 µg/mL (≈ 177 µM).

And the MIC [10, 30]?
The MIC was 0.1 µg/mL (≈ 0.177 µM).

What about the MIC [11, 32] of the same molecule?
Its MIC is 0.2 µg/mL (≈ 0.354 µM).

Which results are given for `CCC1OC(=O)CCC(C)C(OC2OC(C)CC(N(C)C)C2O)C(CC=O)CC(C)C(=O)C=CC(C)=CC1CCl` (stereo not shown) [MKT-3007]?
MIC [1, 13]: 0.20 µg/mL (≈ 0.342 µM); MIC [2, 15]: 0.20 µg/mL (≈ 0.342 µM); MIC [3, 17]: 0.20 µg/mL (≈ 0.342 µM); MIC [4, 19]: 25 µg/mL (≈ 42.8 µM); MIC [5, 21]: 0.20 µg/mL (≈ 0.342 µM); MIC [6, 23]: 0.20 µg/mL (≈ 0.342 µM); MIC [7, 25]: 0.20 µg/mL (≈ 0.342 µM); MIC [8, 27]: 50 µg/mL (≈ 85.6 µM); MIC [9, 29]: 50 µg/mL (≈ 85.6 µM); MIC [10, 31]: 0.10 µg/mL (≈ 0.171 µM); MIC [11, 33]: 0.20 µg/mL (≈ 0.342 µM)
